One experiment relates to Dermanyssus gallinae. The experiment can be described thus: B-9 miticidal action against Dermanyssus gallinae. The conditions noted are these: Dermanyssus gallinae, 72 h; 100 ppm; observed for three days; read-out: Wirkung (Mortalität). It is filed as in vivo. The protocol: 2 bis 3 ml einer Testlösung (100, 10, 1 und 0,1 ppm Aktivsubstanz) werden in einen nach oben offenen Glasbehälter gegeben und ca. 200 Milben in unterschiedlichen Entwicklungsstadien in diesen Behälter eingesetzt. Der Glasbehälter wird mit einem Wattebausch verschlossen und 10 Minuten gleichmässig, bis zur vollständigen Benetzung der Milben geschüttelt. Danach wird der Behälter umgekehrt hingestellt, bis die überschüssige Testlösung von der Watte aufgesogen ist. Der Behälter wird erneut gekehrt und die behandelten […] zur Evaluierung der Wirksamkeit der Testsubstanzen drei Tage unter Laborbedingungen beobachtet, wobei die Mortalität als Massstab für Wirksamkeit herangezogen wird.

In experiment [1] the test system is Boophilus microplus (Biarra-Stamm). Nature of the experiment: B-4 acaricidal action against Boophilus microplus (injection into engorged female ticks, IR90). It counts as in vivo. As to conditions: injection of 1, 0,1 or 0,01 µg per tick; dose of the result not stated. Here is the method:
Auf einer PVC-Platte wird waagrecht ein Klebstreifen so befestigt, das darauf 10 mit Blut vollgesogene Zecken-Weibchen von Boophilus microplus (Biarra-Stamm) nebeneinander in einer Reihe mit dem Rücken aufgeklebt werden können. Jeder Zecke wird mit einer Injektionsnadel 1 µl einer Flüssigkeit injiziert, die eine 1:1-Mischung von Polyethylenglykol und Aceton darstellt und in der eine bestimmte Wirkstoffmenge von wahlweise 1, 0,1 oder 0,01 µg pro Zecke gelöst ist. Kontrolltiere erhalten eine wirkstofffreie Injektion. Nach der Behandlung werden die Tiere unter Normalbedingungen in einem Insektarium bei ca. 28°C und 80 % relativer Luftfeuchtigkeit gehalten, bis die Eiablage erfolgt und die Larven aus den Eiern der Kontrolltiere geschlüpft sind.
Die Aktivität einer geprüften Substanz wird mit der IR₉₀ bestimmt, d.h. es wird jene Wirkstoffdosis ermittelt, bei der noch nach 30 Tagen 9 von 10 Zeckenweibchen (= 90 %) Eier ablegen, die nicht schlupffähig sind.

In a further experiment the test system is Aphis craccivora. The experiment can be described thus: B-6 contact action on Aphis craccivora (sprayed pea seedlings). It counts as in vivo. As to conditions: Aphis craccivora, 72 h; 12,5 ppm; after 3 days; read-out: Abtötung. An excerpt:
Erbsenkeimlinge, die mit sämtlichen Entwicklungsstadien der Laus infiziert sind, werden mit einer aus einem Emulsionskonzentrat hergestellten Wirkstofflösung besprüht, die wahlweise 50 ppm, 25 ppm oder 12,5 ppm Wirkstoff enthält. Nach 3 Tagen wird auf mehr als 80 % tote bzw. abgefallene Blattläuse ausgewertet. Nur bei dieser Wirkungshöhe wird ein Präparat als wirksam eingestuft.

Experiment [2] concerns L₁-Larven von Lucilia sericata. Nature of the experiment: B-3 action against L1 larvae of Lucilia sericata (larval culture medium). It is filed as in vivo. As to conditions: Lucilia sericata, 96 h, after 4 days, read-out: Wirkung (Mortalitätsrate). The protocol:
1 ml einer wässrigen Suspension der zu prüfenden Aktivsubstanz werden so mit 3 ml eines speziellen Larvenzuchtmediums bei ca. 50°C vermischt, dass ein Homogenisat von wahlweise 250 ppm oder 100 ppm Wirkstoffgehalt entsteht. In jede Reagenzglas-Probe werden ca. 30 Lucilia-Larven (L₁) eingesetzt. Nach 4 Tagen wird die Mortalitätsrate bestimmt. Verbindungen der Formel I aus den Tabellen, wie z.B. die Verbindungen Nr. 2.8, 2.17, 2.31, 2.33, 2.35, 2.43, 2.1, 2.18 und 2.45 erzielten mit 100 ppm eine Wirkung von 100 %.

For experiment [3], the system named is Haemonchus concortus und Trichostrongylus colubriformis. Nature of the experiment: B-5 test on sheep infected with nematodes (worm egg count in faeces). It is filed as in vivo, Schafe. The conditions noted are these: 0,2 mg/kg, single dose by stomach tube or intraruminal injection; compared with untreated infected sheep. The protocol:
Der Wirkstoff wird als Suspension formuliert mit einer Magensonde oder durch Injektion in den Pansen eines Schafes gegeben, das mit Haemonchus concortus und Trychostrongylus colubriformis künstlich infiziert worden ist. Pro Dosis werden 1 bis 3 Tiere verwendet. Jedes Schaf wird nur einmal mit einer einzigen Dosis behandelt, und zwar wahlweise mit 0,5 mg oder 0,2 mg/kg Körpergewicht. Die Evaluierung erfolgt durch Vergleich der Anzahl der vor und nach Behandlung im Kot der Schafe ausgeschiedenen Wurmeier.
Gleichzeitig und gleichartig infizierte aber unbehandelte Schafe dienen als Kontrolle.

The test system of another experiment is Meloidogyne incognita. Nature of the experiment: B-8 soil-nematicidal action against Meloidogyne incognita (tomato plants, root-knot index). The conditions noted are these: 0,002 % Aktivsubstanz based on soil volume; after 4 weeks; untreated infected controls = 100 %. It counts as in vivo. Here is the method: Eier von Meloidogyne incognita werden in Sand eingemischt. Dieses Gemisch wird dann in 200 ml fassende Tontöpfe eingebracht (5000 Eier pro Topf). Am gleichen Tag wird pro Topf eine 3 Wochen alte Tomatenpflanze gepflanzt und der formulierte Wirkstoff mittels Druckapplikation in die Töpfe hineingegeben (0,002 % Aktivsubstanz bezogen auf das Bodenvolumen). Die eingetopften Pflanzen werden nun bei einer Temperatur von 26±1°C und einer relativen Luftfeuchtigkeit von 60 % in einem Gewächshaus aufgestellt. Nach Ablauf von 4 Wochen erfolgt eine Evaluierung durch Untersuchung der Pflanzen auf Wurzelgallbildung nach dem sogenannten Wurzelgall-Index ("Knot Index")

The next experiment concerns Spodoptera littoralis. The experiment can be described thus: B-1 insecticidal stomach-poison action on Spodoptera littoralis (sprayed cotton plants). As to conditions: Wirkstoffkonzentration 3 ppm; nach 24 Stunden; L1 larvae on sprayed cotton plants. It is filed as in vivo. Here is the method:
Eingetopfte Baumwollpflanzen im 5-Blatt-Stadium werden mit einer acetonisch/wässrigen Versuchslösung besprüht, die 3, 12,5 oder 50 ppm der zu prüfenden Verbindung enthält.
Nach dem Antrocknen des Belags werden die Pflanzen mit ca. 30 Larven (L₁-Stadium) von Spodoptera littoralis besetzt. Pro Versuchsverbindung und pro Test-Spezies verwendet man zwei Pflanzen. Der Versuch wird bei ca. 24°C und 60 % relativer Luftfeuchtigkeit durchgeführt. Auswertungen und Zwischenauswertungen auf moribunde Tiere, Wachstum und Larven und Frassschäden erfolgen nach 24 Stunden, 48 Stunden und 72 Stunden.

A further experiment deals with Aedes aegypti. Nature of the experiment: B-7 larvicidal action against Aedes aegypti. It counts as in vivo. The conditions noted are these: 1,6 ppm; nach einem Tag. Here is the method: Auf die Oberfläche von 150 ml Wasser, das sich in einem Behälter befindet, wird soviel einer 0,1 %igen acetonischen Lösung des Wirkstoffes pipettiert, dass Konzentrationen von wahlweise 10 ppm, 3,3 ppm und 1,6 ppm erhalten werden. Nach Verdunsten des Acetons wird der Behälter mit ca. 30-40 3 Tage alten Aedes-Larven beschickt. Nach 1, 2 und 5 Tagen wird die Mortalität geprüft.

On to `CC[C@H]1O[C@]2(CC[C@@H]1C)C[C@@H]1C[C@@H](C/C=C(\C)[C@H](C)[C@@H](C)/C=C/C=C3\CO[C@@H]4[C@H](OC(=O)Cn5cncn5)C(C)=C[C@@H](C(=O)O1)[C@]34O)O2` [Verbindung 2.33, 5-O-(1,2,4-Triazol-1-yl)-acetyl-13β-methyl-milbemycin A₄], for which the mortality at 100 ppm (in the experiment on Dermanyssus gallinae; in experiment [2]) was 100% in each case. Also, the “Wirkung (IR₉₀)” value in experiment [1] was “sehr gute Wirkung”. In addition, the mortality at 12.5 ppm in the experiment with Aphis craccivora is 100%. Also, the “Nematodenbefall (Reduktion der Wurmeier im Kot)” value in experiment [3] is listed as “keinen Nematodenbefall”. Also, the “Restbefall (Wurzelgallbildung)” value with Meloidogyne incognita is 0-10%. In addition, in the experiment on Spodoptera littoralis, the Abtötung entry was “vollständige Abtötung”. Also, the “Abtötung sämtlicher Larven” value in the experiment with Aedes aegypti is listed as “vollständige Abtötung”.

Values taken from patent EP0236939A1, “Derivatives of 5-acyloxy-13-beta-alkyl milbemicyne against parasites in animals and plants” (CIBA-GEIGY AG, priority 1986, dated 1987).
